Values quoted from earlier work as cited in patent US20220184087A1, “METHODS AND COMPOSITIONS RELATING TO TREATMENT OF CANCER” (The Penn State Research Foundation, priority 2019, published 2022).
Values belong to the compound of their own block, whether it stands above or below them.

Assays:
[1] = system: human head and neck cancer cells
[2] = system: murine head and neck cancer cells
MDM4 = molecular target: T1, MDM4 (Homo sapiens, UniProt O15151); conditions: within p53-binding pocket
T1 sequence (O15151 1-490): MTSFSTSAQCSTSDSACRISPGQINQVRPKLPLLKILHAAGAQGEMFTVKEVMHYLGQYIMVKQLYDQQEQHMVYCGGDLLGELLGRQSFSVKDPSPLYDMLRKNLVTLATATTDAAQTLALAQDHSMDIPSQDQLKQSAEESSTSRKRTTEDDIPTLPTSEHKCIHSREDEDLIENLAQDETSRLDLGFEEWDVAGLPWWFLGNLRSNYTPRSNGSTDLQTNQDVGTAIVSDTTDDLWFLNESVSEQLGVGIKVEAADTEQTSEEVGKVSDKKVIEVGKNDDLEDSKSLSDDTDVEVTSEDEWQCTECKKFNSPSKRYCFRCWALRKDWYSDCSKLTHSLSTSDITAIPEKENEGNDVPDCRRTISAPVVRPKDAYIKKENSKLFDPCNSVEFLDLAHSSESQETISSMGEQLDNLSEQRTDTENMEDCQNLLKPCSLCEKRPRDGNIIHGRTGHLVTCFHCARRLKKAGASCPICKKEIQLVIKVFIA

melanoma = melanoma patients

Compound: C=CCn1c(=O)c2cnc(Nc3ccc(N4CCN(C)CC4)cc3)nc2n1-c1cccc(C(C)(C)O)n1 [MK1775, 2-allyl-1-(6-(2-hydroxypropan-2-yl)pyridin-2-yl)-6-((4-(4-methylpiperazin-1-yl)phenyl)amino)-1H-pyrazolo[3,4-d]pyrimidin-3(2H)-one]
sensitization to NK lysis [1]: sensitized
sensitization to NK lysis [2]: sensitized

binding affinity to MDM4 (MDM4): high affinity
Compound: CCOc1cc(/C=C2/C(=O)N(c3ccccc3)N=C2C)cc(Cl)c1OCC(=O)OC [SJ-172550]

Compound: ipilimumab: anti-CTLA4 immune checkpoint inhibitor antibody
median PFS (melanoma): 2.9 months

Compound: nivolumab: anti-PD-1 immune checkpoint inhibitor antibody
median PFS (melanoma): 6.9 months
